Test [1] deals with model rats with alimentary obesity. The experiment in a line: Example 4: body weight of rats with high-fat-feed alimentary obesity, 30 d intragastric administration. The format is in vivo, SD rats. The conditions noted are these: x ± s; for Body weight (g) (after experiment): after 30 d intragastric; for Body weight (g) (before experiment): baseline after 1 month high-fat feed, 10 rats per group. As for the experimental part: (§1) Test substances: Formulations are prepared according to the ratios shown in Table 4 Formulations for feeding animals: high-fat feed is composed of 80% basic feed, 10% lard and 10% yolk powder.
(§2) Grouping and treatment of the test animals: 80 grown-up male healthy SD clean grade rats (body weight 180-210 g) are adaptively fed with basic feed for a week, 10 are used as basic feed control, the rest are fed with high-fat feed. A month later, the group of rats fed with high-fat feed is randomly grouped into 7 groups according to their weights, 10 in each group: model control, fucoxanthin (A), tocotrienols(B), fucoidan(C), composition A+B+C, composition A+B and composition A+C. The group of basic feed keeps on feeding with basic feed, the rest groups are fed with high-fat feeds. The groups of basic feed and model control are intragastrically administrated with distilled water, the rest groups are intragastrically administrated with tested medicines, all administrated for 30 d. The groups of animals are raised in different cages in rooms with the temperature conditioned at (22±2) ° C. and under natural illumination. The rats take food and water freely. Each week, their body weights are measured and the amounts of food they take are observed and recorded. They are weighted after feeding for 30 d.
(§3) Statistical analysis: the variance from the data collected in this experiment is analyzed with SAS package, Dunnett's t test is used to compare statistically the results from different groups, the results of P<0.05 is decided as statistically significant.

Test [2] shares this test system. The experiment in a line: Example 5: abdomen fat in model rats with alimentary obesity. The format is in vivo, SD rats. The conditions noted are these: x ± s, 30 d, A 9.06 μg, B 36.25 μg, C 18.12 mg (A + B: A 36.25 μg [sic]). As for the experimental part:
as §1, §2, §3
The procedure was the same as in Example 4. After feeding for 30 d and weighing, executing all the rats, the abdomen fat was peeled off and weighed accurately. Statistical analysis was carried out as in Example 4

Test [3] shares this test system. The experiment in a line: Example 6: fat pads around the testicles in model rats with alimentary obesity. The format is in vivo, SD rats. The conditions noted are these: x ± s, 30 days, A 362.5 μg, B 18.12 μg, C 9.06 mg. As to the method:
as §1, §2, §3
The procedure was the same as in Example 4. After feeding for 30 days and weighing, executing all the rats, the fat pads around the testicles were peeled off and weighed accurately. Statistical analysis was carried out as in Example 4.

Test [4] shares this test system. The experiment in a line: Example 7: fat pads around the kidneys in model rats with alimentary obesity. The format is in vivo, SD rats. The conditions noted are these: x ± s; 30 d; A 181.23 μg, B 398.7 μg, C 1.81 mg. As to the method: as §1, §2, §3
The procedure was the same as in Example 4. After feeding for 30 d and weighing, executing all the rats, the fat pads around the kidneys were taken out and weighed accurately. Statistical analysis was carried out as in Example 4.

Test [5] deals with test subjects. The test can be described thus: Example 8: clinic intake trial, body weight and abdomen fat areas by CT. The format is in vivo, human. The source says: To examine the weight reducing effect of fucoxanthin composition by means of random control method, 20 eligible test subjects of the age of 20 to 50 were divided into 5 groups, A+B+C, A+C, A+B, A, B+C, with random figure table method. The number of the subjects in each group was n=4. The daily doses of the medicines taken by the subjects were according to Table 12. Apart from being administrated with each of the different tested medicines at the breakfast time according to the set way of taking the medicine, other normal life style and dietetic habit of the subjects were not changed. No low-calorie food recipe was required, no restriction to the food and drink was executed and no extra physical training was carried out. To examining the effect of sampling of the medicine, the subjects were respectively examined before sampling of the medicine and 1 month, 2 and 3 months after the sampling. That is, the bodyweight, waist- and hiplines, blood sugar and blood fat were measured, abdomen CT scanning was carried out and so on. The subjects were periodically followed-up to find out the experiences and to supervise and guarantee compliance of the customers in taking the medicine. For the test, those suffered from serious metabolic diseases that need medicinal control and those taken other weight reducing products had been excluded.
Abdomen fat areas were measured with CT • Instrument: CT Model Pronto; Hitachi, Japan. • 120 kV, 175 mA • Layer thickness of the scanning: 10 mm • Scanning in the umbilical cross-section • Attenuation of the adipose tissue: −250˜−50 HU (CT Unit) • Calculation of the fat areas: total abdomen fat, visceral- and subcutaneous fat (mm^2)
Using CT Scanning, total fat—as well as visceral fat areas were marked out across the umbilical cross-section, the areas were measured respectively, the area of subcutaneous fat was obtained as the difference of both areas.

Where [6] appears, read: per rat A 36.25 μg, B 36.25 μg, C 0.4 mg.
Where [7] appears, read: over 30 d intragastric, per rat A 36.25 μg, B 36.25 μg, C 0.4 mg.
Setting [8] is: n = 4, after vs before, daily dose A 2 mg, B 2 mg, C 22 mg.
The mark [9] stands for this setting: x ± s, n = 4, CT, oral daily dose A 2 mg, B 2 mg, C 22 mg.

Experimental findings from patent publication US9226911B2, “Method of reducing weight using composition containing fucoxanthin extract” (BEIJING GINGKO GROUP BIOLOGICAL TECHNOLOGY CO., LTD., priority 2009, dated 2016) are described below.

Marks after values point to notes of the source that are not given here.

For fucoxanthin, the “Body weight (g) (after experiment)” value in test [1] (setting [6]) is listed as 530.18 ± 20.32Δ g. Moreover, the “Body weight (g) (before experiment)” value in test [1] worked out at 486.50 ± 22.10 g. The “Weight increased(g)” value in test [1] (setting [7]) is 43.68 ± 19.13Δ g. Further, in test [2], the “Abdomen fat (g)” value is 9.58 ± 1.99Δ g, the “Body weight (g) (after experiment)” value was found to be 530.18 ± 20.32 g and the “Weight of abdomen fat/body weight” value is reported as 1.81 ± 0.13Δ. In test [3], the “Body weight (g) (after experiments)” value was 530.18 ± 20.32 g, the “Fat pad weight around the testicles (g)” value was 7.32 ± 0.83Δ g and the “Fat pad weight around the testicles/body weight” value was 1.38 ± 0.11Δ. Also, in test [4], the “Body weight (g) (after experiments)” value is on record as 530.18 ± 20.32 g, the “Total weight of fat pads around the kidneys (g)” value was 7.42 ± 0.60Δ g and the “Total weight of fat pads around the kidneys/body weight” value was 1.42 ± 0.12Δ. Also, the “effects compared with B+C group” value in test [5] (clinic trial, P<0.05) is “more significant than B+C group”. For the same substance, in test [5] (setting [8]), the “The area of subcutaneous fat, Decrease (%)” value worked out at 6.10%; the “The area of visceral fat, Decrease (%)” value turned out to be 4.20%; the “Total abdomen fat area, decrease” value turned out to be 5.68%. Besides, the “Body weight Change: decrease by” value in test [5] (n = 4, oral daily dose A 2 mg, B 2 mg, C 22 mg, after vs before) is listed as “by 1.5%”. Further, in test [5] (x ± s, n = 4, CT, difference of total and visceral fat areas, baseline), the “The area of subcutaneous fat, Before clinic experiment” value is 15514 ± 1192 mm^2. Moreover, the “The area of subcutaneous fat, After clinic experiment” value in test [5] (x ± s, n = 4, CT, difference of total and visceral fat areas, daily dose A 2 mg, B 2 mg, C 22 mg) is on record as 14568 ± 1225* mm^2. Moreover, the “Total abdomen fat area, Before clinic experiment” value in test [5] (x ± s, n = 4, CT, umbilical cross-section, baseline) was found to be 36555 ± 1645 mm^2. For the same substance, the “The area of visceral fat, Before clinic experiment” value in test [5] (x ± s, n = 4, CT, baseline) was 17380 ± 1185 mm^2. Moreover, in test [5] (setting [9]), the “The area of visceral fat, After clinic experiment” value was 16650 ± 1484* mm^2 and the “Total abdomen fat area, After clinic experiment” value came out at 34479 ± 1475 mm^2. The “Body weight, Before clinic experiment” value in test [5] (x ± s, n = 4, baseline) was 68.4 ± 0.13 kg. For the same substance, the “Body weight, After clinic experiment” value in test [5] (x ± s, n = 4, oral daily dose A 2 mg, B 2 mg, C 22 mg) was 67.37 ± 0.11 kg.

In the case of fucoidan, the “Body weight (g) (after experiment)” value in test [1] (setting [6]) is recorded as 546.59 ± 18.64 g. The “Body weight (g) (before experiment)” value in test [1] turned out to be 486.69 ± 21.12 g. Also, the “Weight increased” value in test [1] (setting [7]) was found to be 59.90 ± 18.11 g. Moreover, in test [2], the “Abdomen fat” value was 12.99 ± 1.23 g and the “Body weight (g) (after experiment)” value is listed as 546.59 ± 18.64 g. Moreover, the “Weight of abdomen fat/body weight” value in test [2] (in % (unit assumed)) came out at 2.38 ± 0.13. Besides, in test [3], the “Body weight (g) (after experiments)” value came out at 546.59 ± 18.64 g and the “Fat pad weight around the testicles” value worked out at 9.11 ± 0.48 g. In test [3] (in % (unit assumed)), the “Fat pad weight around the testicles/body weight” value is reported as 1.67 ± 0.13. Besides, in test [4], the “Body weight (g) (after experiments)” value was found to be 546.59 ± 18.64 g, the “Total weight of fat pads around the kidneys” value came to 9.29 ± 0.61 g and the “Total weight of fat pads around the kidneys/body weight” value is 1.70 ± 0.13.
